Measured values reported in patent publication US20100062465A1, “Detection of Histone Deacetylase Inhibition” (priority 2006, published 2010).

System: HDAC
Test: Fluor de Lys fluorometric assay of HDAC activity in PC3 cells
Assay type: cell-based, human
Conditions: 24 h
Protocol: Briefly 20×10^3 cells/well were seeded in 96 well plates and incubated for 24 h with (a) 1 mM BLT (b) FSAHA at 2, 5, 10 μM (c) SAHA at 2, 5, 10 μM (d) FSAHA at 2, 5, 7, 8, 9, 10 μM in the presence of 1 mM BLT (e) FSAHA at 2, 5, 7, 8, 9, 10 μM in the presence of vehicle (DMSO). The Fluor de Lys substrate was then added for 1 h, medium removed, cells rinsed with PBS and incubated for 10 minutes with the Fluor-de-Lys developer, and fluorescence read at 460 nm using the Tecan microplate reader as above. Results were normalized to cell density as determined using the WST-1 assay in the same 96 well plate.

**Q.** O=C(CCCCCCC(=O)Nc1ccccc1)NO [SAHA, suberoylanilide hydroxamic acid, reference compound] was tested. Which “HDAC activity (relative to controls)” value (2 μM) did it give?
**A.** Its value is 84±10%.

**Q.** What about the “HDAC activity (relative to controls)” value (5 μM) of the same compound?
**A.** The value was 51±3%.

**Q.** And the “HDAC activity (relative to controls)” value (10 μM)?
**A.** Its value is 29±3%.
